The assay has as its system BDF1 mice, P388 leukemia ip, median survival T/C. Nature of the assay: NCI In Vivo Anticancer Drug Screen. Data for tumor model P388 Leukemia (intraperitoneal) in B6D2F1 (BDF1) mice. Particulars: endpoint: median survival time, higher = longer survival. The method in brief: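 Mice carrying the transplantable tumour receive compound or vehicle. Survival is followed in each arm, and the treated measure is divided by the vehicle measure.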

Setting [1] is: dose: 100.0 mg/kg/injection, schedule: Q04DX003 (ip), vehicle: saline with Tween-80.
Setting [2] is: dose: 200.0 mg/kg/injection, schedule: Q04DX003 (ip), vehicle: saline with Tween-80.
The mark [3] stands for this setting: dose: 3.12 mg/kg/injection, schedule: Q04DX003 (ip), vehicle: water.
Setting [4] is: dose: 6.25 mg/kg/injection, schedule: Q01DX009 (ip), vehicle: water.
[5] abbreviates: dose: 6.25 mg/kg/injection, schedule: Q04DX003 (ip), vehicle: water.
[6] abbreviates: dose: 12.5 mg/kg/injection, schedule: Q04DX003 (ip), vehicle: water.
The mark [7] stands for this setting: dose: 25.0 mg/kg/injection, schedule: Q04DX003 (ip), vehicle: water.
Where [8] appears, read: dose: 50.0 mg/kg/injection, schedule: Q04DX003 (ip), vehicle: water.
The mark [9] stands for this setting: dose: 100.0 mg/kg/injection, schedule: Q01DX009 (ip), vehicle: Klucel (hydroxypropylcellulose) (HPC).
Setting [10] is: dose: 4.0 mg/kg/injection, schedule: Q01DX009 (ip), vehicle: saline with Tween-80.

Each structure is given as a SMILES string. Where “and” joins values, the source holds several entries; their conditions need not be identical. Equal values may be shown once. Inconclusive results and toxic doses are left out.

As for `O=c1c2ccccc2sc2c(CO)ccc(NCCN3CCCCC3)c12`, the T/C (dose: 50.0 mg/kg/injection, schedule: Q04DX003 (ip), vehicle: saline with Tween-80) is 101 % of control; the T/C under setting [1] was 101 % of control; the T/C (dose: 176.0 mg/kg/injection, schedule: Q04DX003 (ip), vehicle: saline with Tween-80) was 115 % of control; the T/C under setting [2] was 110 % of control; the T/C (dose: 264.0 mg/kg/injection, schedule: Q04DX003 (ip), vehicle: saline with Tween-80) is 123 % of control; the T/C (dose: 600.0 mg/kg/injection, schedule: Q04DX003 (ip), vehicle: saline with Tween-80) is 180 % of control.

Turning to `Clc1ccc(CN2CCCN(Cc3ccc(Cl)c(Cl)c3)S2)cc1Cl`, the T/C runs as follows: (dose: 50.0 mg/kg/injection, schedule: Q01DX009 (ip), vehicle: saline with Tween-80) 101 % of control; (dose: 100.0 mg/kg/injection, schedule: Q01DX009 (ip), vehicle: saline with Tween-80) 97 % of control; (dose: 200.0 mg/kg/injection, schedule: Q01DX009 (ip), vehicle: saline with Tween-80) 90 % of control.

Turning to `O=C(O)CNC1CSSC1`, the T/C by setting is: (dose: 1.56 mg/kg/injection, schedule: Q04DX003 (ip), vehicle: water) 97 % of control; (dose: 3.12 mg/kg/injection, schedule: Q01DX009 (ip), vehicle: water) 111 % of control; under setting [3], 88 % of control; under setting [4], 101 % of control; under setting [5], 93 % of control; under setting [6], 88 % of control. Also, the T/C (dose: 25.0 mg/kg/injection, schedule: Q01DX009 (ip), vehicle: water) is 109 % of control; the T/C under setting [7] was 94 % of control; the T/C (dose: 50.0 mg/kg/injection, schedule: Q01DX009 (ip), vehicle: water) is 108 % of control; the T/C under setting [8] is 86 % of control; the T/C (dose: 100.0 mg/kg/injection, schedule: Q01DX009 (ip), vehicle: water) was 91 % of control.

On to `COc1ccc(C(CC(C)=O)c2c(O)c3ccccc3oc2=O)cc1OC` (stereo unspecified), for which the T/C under setting [3] is 98 % of control; the T/C under setting [4] was 100 % of control; the T/C under setting [5] was 101 % of control; the T/C (dose: 12.5 mg/kg/injection, schedule: Q01DX009 (ip), vehicle: water) is 100 % of control; the T/C under setting [6] is 100 % of control; the T/C under setting [7] was 105 % of control. In addition, the T/C was 100 % of control under setting [8]; 100 % of control and 102 % of control (dose: 100.0 mg/kg/injection, schedule: Q04DX003 (ip), vehicle: water); 101 % of control (dose: 200.0 mg/kg/injection, schedule: Q04DX003 (ip), vehicle: water); 90 % of control (dose: 400.0 mg/kg/injection, schedule: Q04DX003 (ip), vehicle: water).

For `Nc1c(Cl)c(Cl)nc(C(=O)O)c1Cl`, the T/C is, setting by setting: (dose: 2.5 mg/kg/injection, schedule: Q01DX009 (ip), vehicle: saline) 102 % of control; (dose: 5.0 mg/kg/injection, schedule: Q01DX009 (ip), vehicle: saline) 106 % of control; (dose: 6.25 mg/kg/injection, schedule: Q01DX009 (ip), vehicle: Klucel (hydroxypropylcellulose) (HPC)) 104 % of control; (dose: 10.0 mg/kg/injection, schedule: Q01DX009 (ip), vehicle: saline) 113 % of control; (dose: 12.5 mg/kg/injection, schedule: Q01DX009 (ip), vehicle: Klucel (hydroxypropylcellulose) (HPC)) 95 % of control; (dose: 20.0 mg/kg/injection, schedule: Q01DX009 (ip), vehicle: saline) 115 % of control. In addition, the T/C (dose: 25.0 mg/kg/injection, schedule: Q01DX009 (ip), vehicle: Klucel (hydroxypropylcellulose) (HPC)) was 104 % of control; the T/C (dose: 40.0 mg/kg/injection, schedule: Q01DX009 (ip), vehicle: saline) was 106 % of control; the T/C (dose: 50.0 mg/kg/injection, schedule: Q01DX009 (ip), vehicle: Klucel (hydroxypropylcellulose) (HPC)) was 106 % of control; the T/C under setting [9] is 98 % of control.

As for `CC(C)C1CCC2=C(CCC3C(C)(C(=O)O)CCCC23C)C1` (stereo unspecified), the T/C (dose: 100.0 mg/kg/injection, schedule: Q01DX009 (ip), vehicle: saline) was 109 % of control; the T/C (dose: 200.0 mg/kg/injection, schedule: Q01DX009 (ip), vehicle: saline) is 100 % of control; the T/C (dose: 400.0 mg/kg/injection, schedule: Q01DX009 (ip), vehicle: saline) was 100 % of control.

With `O=S(=O)(O)O.[N-]=C(N)/N=C(\[NH-])N.[N-]=C(N)/N=C(\[NH-])N.[N-]=C(N)NC(=[N-])N.[Rh+3]`, the T/C is 104 % of control (dose: 6.25 mg/kg/injection, schedule: Q01DX009 (ip), vehicle: saline); 95 % of control (dose: 12.5 mg/kg/injection, schedule: Q01DX009 (ip), vehicle: saline); 100 % of control (dose: 12.5 mg/kg/injection, schedule: Q04DX003 (ip), vehicle: saline); 119 % of control (dose: 25.0 mg/kg/injection, schedule: Q01DX009 (ip), vehicle: saline); 109 % of control (dose: 25.0 mg/kg/injection, schedule: Q04DX003 (ip), vehicle: saline); 118 % of control (dose: 50.0 mg/kg/injection, schedule: Q04DX003 (ip), vehicle: saline).

For the molecule `O=[N+]([O-])c1ccc(N=N/C(Cc2ccccc2)=N\Nc2ccccc2)cc1`, the T/C runs as follows: under setting [9], 100 % of control; (dose: 200.0 mg/kg/injection, schedule: Q01DX009 (ip), vehicle: Klucel (hydroxypropylcellulose) (HPC)) 100 % of control.

Regarding `Cn1nc(NC(=O)C(F)(F)F)c2nccnc21`, the T/C by setting is: under setting [1], 100 % of control; under setting [2], 100 % of control; (dose: 400.0 mg/kg/injection, schedule: Q04DX003 (ip), vehicle: saline with Tween-80) 100 % of control.

Turning to `CC(=O)OC1CCC2(C)C(CCC3(C)C2CCC2C4C5OC(=O)C4(CCC5(C)C)CCC23C)C1(C)C` (stereo unspecified), the T/C by setting is: (dose: 10.0 mg/kg/injection, schedule: Q01DX009 (ip), vehicle: Klucel (hydroxypropylcellulose) (HPC)) 105 % of control; (dose: 20.0 mg/kg/injection, schedule: Q01DX009 (ip), vehicle: Klucel (hydroxypropylcellulose) (HPC)) 114 % of control; (dose: 40.0 mg/kg/injection, schedule: Q01DX009 (ip), vehicle: Klucel (hydroxypropylcellulose) (HPC)) 110 % of control.

Regarding `[Cl][Hg][Cl].c1cnccn1`, the T/C is, setting by setting: (dose: 0.25 mg/kg/injection, schedule: Q01DX009 (ip), vehicle: saline with Tween-80) 104 % of control; (dose: 0.5 mg/kg/injection, schedule: Q01DX009 (ip), vehicle: saline with Tween-80) 96 % of control and 109 % of control; (dose: 2.0 mg/kg/injection, schedule: Q04DX003 (ip), vehicle: saline with Tween-80) 95 % of control and 100 % of control; under setting [10], 96 % of control; (dose: 4.0 mg/kg/injection, schedule: Q04DX003 (ip), vehicle: saline with Tween-80) 95 % of control and 96 % of control; (dose: 5.0 mg/kg/injection, schedule: Q04DX003 (ip), vehicle: saline with Tween-80) 116 % of control. The T/C (dose: 8.0 mg/kg/injection, schedule: Q04DX003 (ip), vehicle: saline with Tween-80) is 111 % of control and 119 % of control.

Consider `C[C@]12CC[C@H]3[C@@H](CC[C@]4(O)C[C@@H](O)CC[C@]34C=O)[C@@]1(O)CC[C@@H]2c1ccc(=O)oc1`, for which the T/C (dose: 13.7 mg/kg/injection, schedule: Q01DX010 (ip), vehicle: carboxymethylcellulose (CMC)) was 95 % of control and the T/C (dose: 27.5 mg/kg/injection, schedule: Q01DX010 (ip), vehicle: carboxymethylcellulose (CMC)) is 100 % of control.

For the molecule `O=c1[nH]cc(Br)c2sccc12`, the T/C was 90 % of control (dose: 150.0 mg/kg/injection, schedule: Q01DX009 (ip), vehicle: saline) and 86 % of control (dose: 225.0 mg/kg/injection, schedule: Q01DX009 (ip), vehicle: saline).

With `COC(=O)c1nc(-c2ccc3c(n2)C(=O)C(N)=C(OC)C3=O)c(N)c(-c2ccc(OC)c(OC)c2O)c1C`, the T/C reads like this: under setting [10], 250 % of control; (dose: 6.0 mg/kg/injection, schedule: Q01DX009 (ip), vehicle: saline with Tween-80) 183 % of control; (dose: 9.0 mg/kg/injection, schedule: Q01DX009 (ip), vehicle: saline with Tween-80) 162 % of control.

For the origin of these results see PubChem BioAssay AID328 (DTP/NCI, 2004).
